From BigSolDB 2.1

Nc1cccc2ccncc12
solubility (mole fraction)
Conditions	in DMF	in acetone	in acetonitrile	in ethanol	in ethylene glycol	in isopropanol	in methanol	in n-propanol	in propylene glycol	in water
278.15 K	0.00564	0.00309	0.00458	0.00135	0.000113	0.00283	0.000354	0.00359	0.000176	3.46e-05
283.15 K	0.00693	0.00371	0.00539	0.00161	0.000132	0.00344	0.000411	0.0042	0.000211	4e-05
288.15 K	0.00832	0.00439	0.00651	0.00191	0.000156	0.00401	0.000483	0.00497	0.000254	4.6e-05
293.15 K	0.01	0.00532	0.00789	0.0022	0.000183	0.00477	0.000559	0.00593	0.000304	5.45e-05
298.15 K	0.0119	0.00636	0.00939	0.00261	0.00022	0.00566	0.000664	0.007	0.000366	6.21e-05
303.15 K	0.0141	0.00752	0.0111	0.00308	0.000261	0.00664	0.000773	0.00831	0.000433	7.2e-05
308.15 K	0.0167	0.00896	0.0131	0.00365	0.000313	0.00784	0.000919	0.00984	0.000516	8.42e-05
313.15 K	0.0196	0.0105	0.0156	0.0043	0.000367	0.00934	0.00107	0.0115	0.000608	9.8e-05
318.15 K	0.023	0.0122	0.0182	0.00508	0.000429	0.0109	0.00128	0.0135	0.000718	0.000113
323.15 K	0.0267	0.0143	0.0219	0.00602	0.000505	0.0128	0.00151	0.0158	0.00085	0.000132
